Consider 17 molecules from patent publication US12312419B2, “Hemiasterlin derivative having cysteine residue” (priority 2019, dated 2025).

Assay [1] deals with porcine tubulin. Nature of the assay: Evaluation of activity for inhibiting microtubule polymerization using porcine tubulins (2). The following applies: compound 9.1 μM; 60 minutes after assay initiation; relative to wells without compound; lower = stronger inhibition. It is filed as biochemical. Here is the method: (§1) Using a tubulin polymerization inhibition assay kit (catalog number: BK006P) purchased from Cytoskeleton Inc., the polymerization inhibitory activity of compounds of Examples with a concentration of 9.1 μM was evaluated in accordance with the protocol appended to the kit. To a 96 well microplate, 80 mM PIPES pH 6.9, 2 mM MgCl, 0.5 mM EGTA and 5% DMSO buffered solution of the compound to be evaluated was added in an amount of 10 μL for each well, and to these wells, 3 mg/mL porcine tubulin 80 mM PIPES pH 6.9, 2 mM MgCl, 0.5 mM EGTA, 1 mM GTP and 10.2% glycerol solution was added in an amount of 100 μL for each well. In order to examine a state in which tubulins polymerize over time, the absorbance at 340 nm was measured at 37° C., using a microplate reader. As the polymerization of tubulins progresses, the absorbance at 340 nm rises.
The tubulin polymerization inhibitory activity was evaluated based on the proportion of polymerized tubulins 60 minutes after the assay initiation. Specifically, the microtubule polymerization rate (%) was calculated by dividing the absorbance of tubulins that had polymerized at wells to which the compound had been added by the absorbance of tubulins that had polymerized at wells to which the compound had not been added, and multiplying the obtained value by 100.

For assay [2], the system named is Karpas-299 cells. The experiment in a line: Cellular toxicity test (1), CellTiter-Glo cell viability. It is filed as cell-based, human. The note with it: Homo sapiens, 96 h; Karpas-299; cultured 4 days; cell viability. How it is done: Karpas-299 cells (European Collection of Authenticated Cell Cultures, hereinafter, ECACC), which are human lymphoma cell lines, were cultured in RPMI 1640 (GIBCO) containing 10% fetal bovine serum (MP Biomedicals) (hereinafter, referred to as the “culture medium”). Cells were prepared to be 2×10^5 cells/mL in the culture medium, and were added to a 96 well microplate for cell culturing in an amount of 50 μL for each well. Compounds of Examples or the Comparative Example compound 4 times diluted with the culture medium in 8 stages were added to the microplate in an amount of 50 μL for each well. These were cultured at 37° C. under 5% CO2 for 4 days. After culturing, the microplate was taken out from the incubator, and was left at rest at room temperature for 10 minutes. To each well, 50 μL of CellTiter-Glo Luminescent Cell Viability Assay (Promega) was added, and the resultant mixture was stirred. This mixture was incubated at a dark place for 20 minutes. Using a microplate luminometer, luminescence at each well was measured, thereby calculating the cell viability. From the value of the cell viability, the IC50 value was calculated.
The IC50 value was calculated by the following formula: IC50(nM)=antilog(LOG10(a/b)×(e−d)/(c−d)+LOG10b) • a: concentration a of test substance • b: concentration b of test substance • c: cell viability upon adding test substance with concentration a • d: cell viability upon adding test substance with concentration b • e: intermediate value between maximum and minimum among cell viabilities upon adding test substances with different concentrations (a and b are concentrations crossing the cell viability e, and a>b is indicated).
The cell viability at each concentration was calculated by the following formula: Cell Viability (%)=a′/b′×100 • a′: mean value of luminescence amount of wells to which test substance was added (n=6) • b′: mean value of luminescence amount of wells to which test substance was not added (n=6) • (n represents the number of evaluations performed per test substance concentration).
Background: ATP-based viability assays read luminescence as a measure of living cells.

In assay [3] the test system is porcine tubulin. Nature of the assay: Evaluation of activity for inhibiting microtubule polymerization using porcine tubulins (1). It is filed as biochemical. The note with it: compound 9.1 μM; absorbance at 340 nm at 37° C. over time; FIG. 1. How it is done:
as §1, with “In summary of the protocol, to” for “To”, “mg/ml” for “mg/mL”

On to `CN[C@H](C(=O)N[C@H](C(=O)N(C)[C@H](/C=C(\C)C(=O)NCCCCNC(=O)CCCCCN1C(=O)CC(SC[C@H](N)C(=O)O)C1=O)C(C)C)C(C)(C)C)C(C)(C)c1cn(C)c2ccccc12` (stereo partly drawn) [Comparative Example compound 2, reference compound], for which, in assay [1], the “Microtubule polymerization rate (%)” value is recorded as 0%. For the same molecule, inhibition in assay [2] was half-maximal at 0.03 µM (IC50).
Take `CN[C@H](C(=O)N[C@H](C(=O)N(C)[C@H](/C=C(\C)C(=O)N[C@H](CCC(=O)NCCN1C(=O)CC(SC[C@H](N)C(=O)O)C1=O)C(=O)O)C(C)C)C(C)(C)C)C(C)(C)c1ccccc1` (stereo partly drawn) [Example MM1, (3S,6S,9S,10E,14R)-14-(3-{[2-(3-{[(2R)-2-Amino-2-carboxyethyl]sulfanyl}-2,5-dioxopyrrolidin-1-yl)ethyl]amino}-3-oxopropyl)-6-tert-butyl-8,11-dimethyl-4,7,12-trioxo-3-(2-phenylpropan-2-yl)-9-(propan-2-yl)-2,5,8,13-tetraazapentadec-10-en-15-oic Acid]: the “activity for inhibiting microtubule polymerization” value in assay [3] was “exhibited activities for inhibiting microtubule polymerization”. In addition, in assay [1], the “Microtubule polymerization rate (%)” value was 9%. Besides, in assay [2], the IC50 (usually the concentration at which inhibition is half-maximal) is greater than 1 µM.
On to `CN[C@H](C(=O)N[C@H](C(=O)N(C)[C@H](/C=C(\C)C(=O)N[C@@H](CCC(=O)NCCN1C(=O)CC(SC[C@H](N)C(=O)O)C1=O)C(=O)O)C(C)C)C(C)(C)C)C(C)(C)c1ccccc1` (stereo partly drawn) [Example MM11], for which, in assay [1], the “Microtubule polymerization rate (%)” value came out at 0%. The molecule also displayed an IC50 in assay [2] greater than 1 µM.
Consider `CN[C@H](C(=O)N[C@H](C(=O)N(C)[C@H](/C=C(\C)C(=O)N[C@H](CCC(=O)O)C(=O)NCCN1C(=O)CC(SC[C@H](N)C(=O)O)C1=O)C(C)C)C(C)(C)C)C(C)(C)c1ccccc1` (stereo partly drawn) [Example MM15], for which the “Microtubule polymerization rate (%)” value in assay [1] was 0%. Further, the IC50 in assay [2] is greater than 1 µM.
Taken in the same sequence, the figures for `CN[C@H](C(=O)N[C@H](C(=O)N(C)[C@H](/C=C(\C)C(=O)N[C@H](CCC(=O)NCCCCN1C(=O)CC(SC[C@H](N)C(=O)O)C1=O)C(=O)O)C(C)C)C(C)(C)C)C(C)(C)c1ccccc1` (stereo partly drawn) [Example MM17] were 0% and 0.85 µM.
Regarding `CN[C@H](C(=O)N[C@H](C(=O)N(C)[C@H](/C=C(\C)C(=O)N[C@@H](CCC(=O)NCCN1C(=O)CC(SC[C@H](N)C(=O)O)C1=O)C(=O)O)C(C)C)C(C)(C)C)C(C)(C)c1cn(C)c2ccccc12` (stereo partly drawn) [Example MM18], in assay [1], the “Microtubule polymerization rate (%)” value came out at 0%. This molecule came in with an IC50 in assay [2] of 0.541 µM.
For `CN[C@H](C(=O)N[C@H](C(=O)N(C)[C@H](/C=C(\C)C(=O)N[C@H](CCC(=O)NCCCN1C(=O)CC(SC[C@H](N)C(=O)O)C1=O)C(=O)O)C(C)C)C(C)(C)C)C(C)(C)c1cn(C)c2ccccc12` (stereo partly drawn) [Example MM23], the “Microtubule polymerization rate (%)” value in assay [1] is listed as 0%. For the same molecule, the IC50 in assay [2] turned out to be 0.942 µM.
In the case of `CN[C@H](C(=O)N[C@H](C(=O)N(C)[C@H](/C=C(\C)C(=O)NCCCC[C@@H](NC(=O)CCCN1C(=O)CC(SC[C@H](N)C(=O)O)C1=O)C(=O)O)C(C)C)C(C)(C)C)C(C)(C)c1ccccc1` (stereo partly drawn) [Example MM28], the “Microtubule polymerization rate (%)” value in assay [1] stood at 0%. In addition, in assay [2], the IC50 is greater than 1 µM.
`CN[C@H](C(=O)N[C@H](C(=O)N(C)[C@H](/C=C(\C)C(=O)N[C@H](CCC(=O)NCCN1C(=O)CC(SC[C@H](N)C(=O)O)C1=O)C(=O)O)C(C)C)C(C)(C)C)C(C)(C)c1cccc(C(F)(F)F)c1` (stereo partly drawn) [Example MM30]: in assay [1], the “Microtubule polymerization rate (%)” value stood at 12%. The molecule also yielded an IC50 in assay [2] greater than 1 µM.
Take `CN[C@H](C(=O)N[C@H](C(=O)N(C)[C@H](/C=C(\C)C(=O)N[C@H](CCC(=O)NCCN1C(=O)CC(SC[C@H](N)C(=O)O)C1=O)C(=O)O)C(C)C)C(C)(C)C)C(C)(C)C1CCCCC1` (stereo partly drawn) [Example MM32]: the “Microtubule polymerization rate (%)” value in assay [1] is recorded as 0%. In assay [2], this molecule registered an IC50 greater than 1 µM.
In assay [2], `CN[C@H](C(=O)N[C@H](C(=O)N(C)[C@H](/C=C(\C)C(=O)N[C@H](CCC(=O)NCCN1C(=O)CC(SC[C@H](N)C(=O)O)C1=O)C(=O)O)C(C)C)C(C)(C)C)C(C)(C)c1ccc2ccccc2c1` (stereo partly drawn) [Example MM38] yielded an IC50 of 0.726 µM.
On the same count and under the same terms, the result for `CN[C@H](C(=O)N[C@H](C(=O)N(C)[C@H](/C=C(\C)C(=O)N[C@H](CCC(=O)NCCN1C(=O)CC(SC[C@H](N)C(=O)O)C1=O)C(=O)O)C(C)C)C(C)(C)C)C(C)(C)c1cccc(-c2ccccc2)c1` (stereo partly drawn) [Example MM39] reads 0.118 µM; that for `CN[C@H](C(=O)N[C@H](C(=O)N(C)[C@H](/C=C(\C)C(=O)N[C@H](CCC(=O)NCCN1C(=O)CC(SC[C@H](N)C(=O)O)C1=O)C(=O)O)C(C)C)C(C)(C)C)C(C)(C)c1cccc(C)c1` (stereo partly drawn) [Example MM40], 0.146 µM.
The same measure, in the same setting: for `CNC(C(=O)N[C@H](C(=O)N(C)[C@H](/C=C(\C)C(=O)N[C@H](CCC(=O)O)C(=O)O)C(C)C)C(C)(C)C)C(C)(C)c1ccc(C(=O)NCCN2C(=O)CC(SC[C@H](N)C(=O)O)C2=O)cc1` (stereo partly drawn) [Example MM43] the value was greater than 1 µM; for `C/C(=C\[C@H](C(C)C)N(C)C(=O)[C@@H](NC(=O)[C@@H](NC(=O)CCCCCN1C(=O)CC(SC[C@H](N)C(=O)O)C1=O)C(C)(C)c1cn(C)c2ccccc12)C(C)(C)C)C(=O)N[C@H](CCC(=O)O)C(=O)O` (stereo partly drawn) [Example MM44], greater than 1 µM.
With `C/C(=C\[C@H](C(C)C)N(C)C(=O)[C@@H](NC(=O)[C@@H](N)C(C)(C)c1ccccc1)C(C)(C)C)C(=O)N[C@H](CCC(=O)NCCN1C(=O)CC(SC[C@H](N)C(=O)O)C1=O)C(=O)O` (stereo partly drawn) [Example MM45], in assay [1], the “Microtubule polymerization rate (%)” value stood at 56%. In assay [2], this molecule had an IC50 greater than 1 µM.
As for `C/C(=C\[C@H](C(C)C)N(C)C(=O)[C@@H](NC(=O)[C@@H](N(C)C)C(C)(C)c1ccccc1)C(C)(C)C)C(=O)N[C@H](CCC(=O)NCCN1C(=O)CC(SC[C@H](N)C(=O)O)C1=O)C(=O)O` (stereo partly drawn) [Example MM46], the “Microtubule polymerization rate (%)” value in assay [1] is reported as 0%. Moreover, the IC50 in assay [2] is greater than 1 µM.
